Laboratory results: publication PMC8306964 (2021)
Peptide text beside a SMILES is read from it. * marks the point of attachment. OBn = c1ccc(CO*)cc1

Tests used:
[1] = tested on: dA10-dT10 (DNA, duplex) AAAAAAAAAA/TTTTTTTTTT; assay: photoalkylation (300 nm irradiation), HPLC; details: NH4+ (ammonium acetate, 100 mM); covalent; pH 7.0; 15 or 60 min; new broad signal at about 16.5 min
[2] = tested on: p(dGdC) (DNA, polymer) GC; assay: fluorescence titration, Scatchard (McGhee-von Hippel) fit; details: Na+ (sodium cacodylate, 50 mM); pH 7.0, 25 °C, <1% DMSO; n fixed 0.3; polynucleotide as phosphates; error half log unit; per base
[3] = tested on: pApU (RNA, polymer) A/U; assay: as above; details: Na+ (sodium cacodylate, 50 mM); pH 7.0, 25 °C, <1% DMSO; n fixed 0.3; polynucleotide as phosphates; error half log unit; per base
[4] = tested on: dG12-dC12 (DNA, duplex) GGGGGGGGGGGG/CCCCCCCCCCCC; assay: HPLC retention shift; details: NH4+ (ammonium acetate, 100 mM); pH 7.0; retention retarded by about 0.3 min with compound; no alkylation on irradiation
[5] = tested on: p(dAdT) (DNA, polymer) AT; assay: fluorescence titration, Scatchard (McGhee-von Hippel) fit; details: Na+ (sodium cacodylate, 50 mM); pH 7.0, 25 °C, <1% DMSO; n fixed 0.3; polynucleotide as phosphates; error half log unit; per base
[6] = tested on: dA10-dT10 (DNA, duplex) AAAAAAAAAA/TTTTTTTTTT; assay: HPLC retention shift; details: NH4+ (ammonium acetate, 100 mM); pH 7.0; signal about 0.5 min earlier with compound

Row | binding [1] | log Ka [2] | log Ka [3] | binding [4] | log Ka [5] | binding [6] | SMILES
1 | yes | 6.4 log (M^-1) | 6.0 log (M^-1) | yes | 5.9 log (M^-1) | yes | CN(C)Cc1cc(C[C@H](NC(=O)[C@H](Cc2c[nH]c3ccccc23)NC(=O)[C@@H](N)Cc2c[nH]c3ccccc23)C(=O)OCc2ccccc2)ccc1O
2 | – | 6.5 log (M^-1) | – | – | – | – | N[C@@H](Cc1c[nH]c2ccccc12)C(=O)N[C@@H](Cc1c[nH]c2ccccc12)C(=O)N[C@@H](Cc1ccc(O)cc1)C(=O)OCc1ccccc1 (H-Trp-Trp-Tyr-OBn)
